Results reported in PMC6332040, “Synthesis, Density Functional Theory (DFT), Urease Inhibition and Antimicrobial Activities of 5-Aryl Thiophenes Bearing Sulphonylacetamide Moieties” (Molecules, 2015).
“And” between values parts separate entries of the source, which are not always exact repeats. Equal entries are not always repeated.

Key:
Jack bean urease enzyme = Jack bean urease enzyme (Canavalia ensiformis, UniProt P07374); assay: biochemical; assay type: biochemical; conditions: pH 6.8
Protocol: Urease is an enzyme which converts urea to ammonium carbonate and is used as a diagnostic tool to establish the presence of different pathogens in the urinary and gastrointestinal tract. The percentage activity values of urease enzyme of compounds 4a–d were measured at 50 µg/mL and 250 µg/mL (Table 5), whereas, for compounds 4e–g, the percentage activity values of urease enzyme were measured at 15, 40 and 80 µg/mL, respectively (Table 6).
Jack bean urease enzyme (25 µL) was added in buffer solution (55 µL) containing 100 mM urea to prepare the stock solution. This mixture was then incubated with 5 µL (0.5 mM concentration) of the newly synthesized compounds for 15 min at 30 °C in 96-well plates. Anti-urease activity was resolved by knowing the production of ammonia using the indophenol method. Concisely, in each well, phenol reagent (45 µL, 0.005% w/v sodium nitroprusside and 1% w/v phenol) was added in addition to the alkali reagent (70 µL, NaOH 0.5% w/v and 0.1% NaOCl). After 50 min, the increase in absorbance was measured at 630 nm using a micro plate reader. All reactions were carried out in triplicate to obtained 200 µL final volume. The Softmax pro software was used to obtain the results as change in absorbance per minute. All assays were carried out at a specific pH of 6.8. The following formula was used to calculate the % inhibition: 100 − (OD test well/OD control) × 100(3)
Thiourea was used as standard inhibitor of urease. The EZ-fit kinetic data base was used to determine IC50 values. In the case of colored compounds, sample blanks were also prepared. Absorbance of sample blanks was subtracted from the absorbance of samples to get the corrected absorbance of the samples. Corrected absorbance of sample was used to calculate % age inhibition.

[1] = IC50, urease, Table 5 series (4a–d)
[2] = IC50, urease, Table 6 series (4e–g)

Jack bean urease enzyme, sequence (P07374 whole entry, looked up): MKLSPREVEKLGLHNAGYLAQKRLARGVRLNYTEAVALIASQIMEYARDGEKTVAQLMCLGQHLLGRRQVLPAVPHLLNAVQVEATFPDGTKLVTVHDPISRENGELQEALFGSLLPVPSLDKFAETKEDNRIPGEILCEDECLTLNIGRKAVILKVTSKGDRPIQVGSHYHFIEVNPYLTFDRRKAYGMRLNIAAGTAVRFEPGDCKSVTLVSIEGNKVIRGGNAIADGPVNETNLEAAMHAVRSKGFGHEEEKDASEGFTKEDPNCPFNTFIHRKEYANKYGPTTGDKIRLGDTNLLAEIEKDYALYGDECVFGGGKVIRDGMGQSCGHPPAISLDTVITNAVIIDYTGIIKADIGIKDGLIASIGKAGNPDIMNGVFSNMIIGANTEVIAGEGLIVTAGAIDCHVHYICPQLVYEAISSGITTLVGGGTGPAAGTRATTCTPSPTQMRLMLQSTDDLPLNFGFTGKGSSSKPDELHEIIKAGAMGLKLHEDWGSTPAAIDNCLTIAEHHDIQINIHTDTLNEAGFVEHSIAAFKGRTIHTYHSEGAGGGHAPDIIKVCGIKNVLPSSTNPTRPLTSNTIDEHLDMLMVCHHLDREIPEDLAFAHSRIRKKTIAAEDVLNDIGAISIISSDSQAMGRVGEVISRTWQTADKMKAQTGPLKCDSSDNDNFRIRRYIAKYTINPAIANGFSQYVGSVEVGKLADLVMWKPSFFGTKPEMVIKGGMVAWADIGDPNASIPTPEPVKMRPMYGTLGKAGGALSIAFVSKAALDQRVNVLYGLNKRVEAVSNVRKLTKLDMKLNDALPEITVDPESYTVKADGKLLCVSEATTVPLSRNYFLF

Compound | IC50 (Jack bean urease enzyme; [1]) | Percent urease inhibition (Jack bean urease enzyme; urease inhibition at 50 µg/mL) [%] | Percent urease inhibition (Jack bean urease enzyme; urease inhibition at 250 µg/mL) [%] | melting point [°C] | IC50 (Jack bean urease enzyme; [2]) | Percent urease inhibition (Jack bean urease enzyme; urease inhibition at 15 µg/mL) [%] | Percent urease inhibition (Jack bean urease enzyme; urease inhibition at 40 µg/mL) [%] | Percent urease inhibition (Jack bean urease enzyme; urease inhibition at 80 µg/mL) [%] | IC50 (Jack bean urease enzyme; urease, Table 5 series (4a–d)) [µg/mL] | IC50 (Jack bean urease enzyme; urease, Table 6 series (4e–g)) [µg/mL]
CC(=O)NS(=O)(=O)c1ccc(-c2ccc(C)cc2)s1 [Compound 4d] | 738 µM | 13.34 ± 0.007 | 54 ± 0.004 | 161 to 163 | – | – | – | – | – | –
CC(=O)NS(=O)(=O)c1ccc(-c2cc(C)cc(C)c2)s1 [Compound 4e] | – | – | – | 148 to 149 | 57.9 µM | 44.59 ± 0.14 | 91.21 ± 0.81 | 92.88 ± 0.14 | – | –
CC(=O)NS(=O)(=O)c1ccc(-c2ccccc2)s1 [Compound 4a] | ~136 µM and 136 µM | 67.56 ± 0.007 | 89 ± 0.01 | 158 to 160 | – | – | – | – | – | –
CC(=O)NS(=O)(=O)c1ccc(-c2ccc(Cl)cc2)s1 [Compound 4g] | – | – | – | 167 to 170 | 73.8 µM | 46.23 ± 0.11 | 90.97 ± 0.18 | 68 ± 0.02 | – | –
CC(=O)NS(=O)(=O)c1ccc(-c2cc(C(F)(F)F)cc(C(F)(F)F)c2)s1 [Compound 4b, N-((5-(3,5-Bis(trifluoromethyl)phenyl)thiophen-2-yl)sulfonyl)acetamide] | ~197 µM and 197 µM | 29.98 ± 0.034 | 56 ± 0.006 | 168 | – | – | – | – | – | –
CC(=O)NS(=O)(=O)c1ccc(-c2ccc(Cl)c(Cl)c2)s1 [Compound 4c] | ~121 µM and 121 µM | 54.4 ± 0.002 | 78 ± 0.003 | 148 to 150 | – | – | – | – | – | –
CC(=O)NS(=O)(=O)c1ccc(-c2ccc(C)s2)s1 [Compound 4f] | – | – | – | 167 to 168.4 | ~56.7 µM and 56.7 µM | 42.44 ± 0.11 | 92.12 ± 0.21 | 94.66 ± 0.11 | – | –
NC(N)=S [Standard, Thiourea, reference compound] | – | 60 ± 0.032 | 95 ± 0.09 | – | – | 47.1 ± 0.31 | 65 ± 0.01 | – | 43 ± 0.38 | 23.3
